Assay results reported in patent US20070129367A1, “Pyridine derivatives as cb2 receptor modulators” (priority 2002, published 2007).
pEC50: −log10 of the molar value. Read-outs that look alike come from different tables or passages of the source.

Target: T1, human cannabinoid CB2 receptor (Homo sapiens, UniProt P34972)
T1 construct: expressed in transfected cells; host or cells: Saccharomyces cerevisiae strain MMY23 (cassette integrated at the ura3 locus, GPD promoter)
Assay: Cannabinoid CB2 receptor agonist activity in yeast (Saccharomyces cerevisiae) cells expressing the receptor, FDGlu fluorescence readout;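 as to Emax: percent of the maximal response of the reference agonist HU210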
Assay type: cell-based
Details: for Emax: read-out: efficacy (Emax) at the cloned human cannabinoid CB2 receptor
Procedure: Determination of Cannabinoid CB2 Receptor Agonist Activity
The cannabinoid CB2 receptor agonist activity of the compounds of formula (I) was determined in accordance with the following experimental method.
Yeast (Saccharomyces cerevisiae) cells expressing the human cannabinoid CB2 receptor were generated by integration of an expression cassette into the ura3 chromosomal locus of yeast strain MMY23. This cassette consisted of DNA sequence encoding the human CB2 receptor flanked by the yeast GPD promoter to the 5′ end of CB2 and a yeast transcriptional terminator sequence to the 3′ end of CB2. MMY23 expresses a yeast/mammalian chimeric G-protein alpha subunit in which the C-terminal 5 amino acids of Gpa1 are replaced with the C-terminal 5 amino acids of human Gαi3 (as described in Brown et aL (2000), Yeast 16:11-22). Cells were grown at 30° C. in liquid Synthetic Complete (SC) yeast media (Guthrie and Fink (1991), Methods in Enzymology, Vol. 194) lacking uracil, tryptophan, adenine and leucine to late logarithmic phase (approximately 6 OD600/ml).
Agonists were prepared as 10 mM stocks in DMSO. […] Agonist solutions in DMSO (1% final assay volume) were transferred into black, clear bottom, microtitre plates from NUNC (96- or 384-well). […] This mixture (50 ul per well for 384-well plates, 200 ul per well for 96-well plates) was added to agonist in the assay plates (Multidrop 384, Labsystems). After incubation at 30° C. for 24 hours, fluorescence resulting from degradation of FDGlu to fluorescein due to exoglucanase, an endogenous yeast enzyme produced during agonist-stimulated cell growth, was determined using a Spectrofluor microtitre plate reader (Tecan; excitation wavelength: 485 nm; emission wavelength: 535 nm). Fluorescence was plotted against compound concentration and iteratively curve fitted using a four parameter fit to generate a concentration effect value. […] Equieffective molar ratio (EMR) values were calculated from the equation EMR=EC50 [compound X]/EC50 [HU210]
Where EC50 [compound X] is the EC50 of compound X and EC50 [HU210] is the EC50 of HU210.

[1] = agonist activity, yeast cells, 24 hours at 30° C., read-out: EC50 at the cloned human cannabinoid CB2 receptor

T1 sequence (P34972 whole entry): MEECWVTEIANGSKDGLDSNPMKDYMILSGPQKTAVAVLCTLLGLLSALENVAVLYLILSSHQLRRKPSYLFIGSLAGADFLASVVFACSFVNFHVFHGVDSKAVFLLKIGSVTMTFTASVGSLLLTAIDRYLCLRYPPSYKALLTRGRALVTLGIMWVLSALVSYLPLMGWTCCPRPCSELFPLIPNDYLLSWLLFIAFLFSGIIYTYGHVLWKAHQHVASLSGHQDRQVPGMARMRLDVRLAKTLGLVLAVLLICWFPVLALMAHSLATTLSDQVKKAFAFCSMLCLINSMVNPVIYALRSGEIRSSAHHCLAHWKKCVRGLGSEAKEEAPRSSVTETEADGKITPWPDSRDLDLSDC

Compound | pEC50 | Emax | pEC50 [1]
COc1cccc(Nc2cc(C(C)C)c(C(=O)NCc3ccc(F)cc3)cn2)c1 [Example 30] | 6.00 to 6.52 | > 50% | 
CC(C)c1cc(Nc2cc(Cl)ccc2F)ncc1C(=O)NCc1ccc(F)cc1 [Example 72, 6-(5-Chloro-2-fluoro-phenylamino)-N-(4-fluoro-benzyl)-4-isopropyl-nicotinamide] |  |  | > 6.52
CC(C)c1cc(Nc2cc(Cl)ccc2Cl)ncc1C(=O)NCc1ccc(F)cc1 [Example 74, 6-(2,5-Dichloro-phenylamino)-N-(4-fiuoro-benzyl)-4-isopropyl-nicotinamide] | 6.00 to 6.52 | > 50% | 
O=C(NCc1ccnc(F)c1)c1cnc(Nc2cc(Cl)cc(Cl)c2)cc1C(F)(F)F [Example 54, N-(2-Fluoro-pyridin-4-ylmethyl)-6-(3,5-dichloro-phenylamino)-4-trifluoromethyl-nicotinamide] | > 6.52 | > 50% | 
Cc1ccc(Cl)cc1Nc1cc(C(F)(F)F)c(C(=O)NCc2ccncc2)cn1 [Example 57, N-(Pyridin-4-ylmethyl)-6-(2-methyl-5-chloro-phenylamino)-4-trifluoromethyl-nicotinamide] | > 6.52 | > 50% | 
CC(C)c1cc(Nc2ccc(C(F)(F)F)c(F)c2)ncc1C(=O)NCc1ccc(F)cc1 [Example 76, N-(4-fluoro-benzyl)-6-(3-Fluoro-4-trifluormethyl-phenylamino)-4-isopropyl-nicotinamide] |  |  | 6.00 to 6.52
CC(C)c1cc(Nc2cccc(Cl)c2)ncc1C(=O)NCc1ccc(C(N)=O)cc1 [Example 8, N-(4-Carbamoyl-benzyl)-6-(3-chloro-phenylamino)-4-isopropyl-nicotinamide] |  |  | 6.00 to 6.52
CC(C)c1cc(Nc2ccc(C#N)cc2)ncc1C(=O)NCc1ccc(F)cc1 [Example 18, 6-(4-Cyano-phenylamino)-N-(4-fluoro-benzyl)-4-isopropyl-nicotinamide] |  |  | > 6.52
CC(C)c1cc(Nc2cccc(Cl)c2)ncc1C(=O)NCc1ccc(F)cc1 [Example 3, 6-(3-Chlorophenylamino)-N-(4-fluorobenzyl)-4-isopropyl-nicotinamide] |  | > 50% | 
CC(C)c1cc(Nc2cccc(OC(F)(F)F)c2)ncc1C(=O)NCc1ccc(F)cc1 [Example 25, N-(4-Fluoro-benzyl)-4-isopropyl-6-(3-trifluoromethoxy-phenylamino)-nicotinamide] | 6.00 to 6.52 | > 50% | 
Cc1cc(C#N)ccc1Nc1cc(C(C)C)c(C(=O)NCc2ccc(F)cc2)cn1 [Example 73, 6-(4-Cyano-2-methyl-phenylamino)-N-(4-fluoro-benzyl)-4-isopropyl-nicotinamide] |  |  | > 6.52
CC(C)c1cc(Nc2cccc(Cl)c2F)ncc1C(=O)NCc1ccc(F)cc1 [Example 26, 6-(3-Chloro-2-fluoro-phenylamino)-N-(4-fluoro-benzyl)-4-isopropyl-nicotinamide] | 6.00 to 6.52 | > 50% | 
